In patent publication US11835522B2, “Sensors for detecting and imaging of cancer metastasis” (Massachusetts Institute of Technology, priority 2019, dated 2023):

Experiments:
CRC liver metastases = assay: 5-FU treatment monitored with PRISM, CRC liver metastasis model; format: in vivo, mice; conditions: 5-FU 15 mg/kg i.p.
Description: (§1) After validation of the efficacy of tailored PRISM nanoparticles, these sensors were applied to study how proteolytic activities correlate with changes in the progression of disease over time and in response to drug treatment. In addition, molecular imaging was safely performed for any lesion for multiple times, providing information related to regional heterogeneity in a given tumor. To evaluate PRISM in monitoring treatment responses, mice were grouped into two categories (n=5 each) to allow monitoring the effect of standard chemotherapy 5-FU treatment: one group received drug (15 mg/kg) by i.p. injection (daily injection for 4 days and once every other day till end of study); and the second group received vehicle as control. To monitor therapeutic responses in treating metastases, PRISM was intravenously injected in each group of mice. After 1 hr of sensor injection, urinary reporter level was assayed to track local proteolytic activity, reflecting tumor invasion capacity. At 6 hrs post-injection, mice were scanned using a small animal PET/CT imager for longitudinal assessment of the tumor progression. […] Real-time images were analyzed and standard uptake value of radioactive reporters were quantified using VivoQuant software.

CRC lung metastases = assay: 5-FU treatment monitored with PRISM, CRC lung metastasis model; format: in vivo, mice
Description: as §1
To monitor therapeutic responses when metastases in the CRC lung metastasis model were treated, PRISM was again intravenously injected in two group of mice on a weekly basis. One hour following sensor injection, urinary reporter level was read to track the local proteolytic activity. […] 6 hours after sensor injection, PET/CT were applied to monitor tumor growth or regression, which provides a longitudinal, noninvasive assessment of the efficacy of anti-tumor drug treatment. […] Consistently, the relative lung/liver ratio of PET/CT signal in the cohort that received no treatment was over 3 times higher than that of the cohort treated with chemotherapy (n=5) (FIG. 6G).

**Q.** Which results are given for `O=c1[nH]cc(F)c(=O)[nH]1` [5-FU]?
**A.** tumor progression / tumor growth vs untreated (CRC liver metastases; started two weeks after tumor inoculation, PET/CT): significantly inhibited tumor progression; urinary reporter level vs non-treated cohort (CRC liver metastases; urine 1 hr after PRISM injection): decreased urinary reporter level; urinary reporter level vs untreated control group (CRC lung metastases; 5-FU treated mice, urine one hour after PRISM injection): Significantly reduced urinary reporter levels; tumor growth vs untreated controls (CRC lung metastases; PET/CT 6 hours after sensor injection): slower tumor growth; relative lung/liver ratio of PET/CT signal, untreated cohort relative to 5-FU treated cohort (CRC lung metastases; n=5, FIG. 6G): over 3 times
